Data as given in article PMC7177633, “Effective Cellular Transport of Ortho-Halogenated Sulfonamide Derivatives of Metformin Is Related to Improved Antiproliferative Activity and Apoptosis Induction in MCF-7 Cells” (International Journal of Molecular Sciences, 2020).

Key:
[1] = tested on: MCF-7 cells; experiment: Uptake in the presence of OCT and MATE inhibitors, MCF-7 cells; type: in vitro ADME, human; conditions: for uptake in the presence of cimetidine, MCF-7 / uptake in the presence of disopyramide, MCF-7 / uptake in the presence of lopinavir, MCF-7 / uptake in the presence of methenamine, MCF-7: compound and inhibitor 400 and 800 µmol/L, 10 min, 37 °C; for interactions with OCT, PMAT and MATE1 transporters, MCF-7: summary from uptake with inhibitors
Method: The uptake of sulfonamide derivatives of metformin (1–9) in MCF-7 and MDA-MB-231 cells was studied also in the presence of disopyramide, cimetidine (OCT1 and 3 inhibitors), lopinavir (OCT and PMAT inhibitor) and methenamine (MATE and OCT2 inhibitors). The cells were incubated (37 °C, 10 min) with compounds 1–9 at concentrations of 400 and 800 μmol/L and inhibitors (disopyramide, cimetidine, lopinavir or methenamine) in 250 μL of prewarmed HBSS buffer. The protocol of determination of the compound concentration was as described above.

[2] = tested on: MCF-7 cells; experiment: Cell viability WST-1 assay, MCF-7; type: cell-based; conditions: Homo sapiens, MCF7; WST-1, 24 h, mean ± SD (n = 6–8); read-out: IC50 inhibition of MCF-7 cells' viability
Method: The viability of MCF-7 and MDA-MB-231 cells was determined using a colorimetric WST-1 assay (Takara, Takara Bio Europe, Saint-Germain-en-Laye, France). Both cell lines were seeded at a density of 1 × 10^4 per well on 96-well plates and were cultured for 24 h to obtain 70% confluence. The following day, the cells were treated with various concentrations of compounds 1–9 diluted in the cell culture medium ([…]). The cells were incubated with tested compounds or pure medium (control) for 24 h (37 °C, 5% CO2). Afterwards, the cells were washed with 100 μL of culture medium, and then, the reagent dissolved in the medium was added (100 μL). The plates were incubated at the standard condition for 1.5 h, and the absorbance was read at 450 nm using a microplate reader (iMARK, Bio-Rad, Bio-Rad Laboratories Inc., Hercules, CA, USA). […] The results of samples treated with the test compounds were expressed as a percentage of the control samples. The data were presented as mean ± standard deviation (SD), n = 8. IC50 values (the concentration of the tested compound that inhibited cell growth by 50%) were calculated using a concentration-response curve (GraphPad Prism, Software, San Diego, CA, USA).
The concentrations contributing to the 50% of cell growth inhibition (IC50) were calculated using nonlinear regression analysis (fitting the curve to log (concentration) vs. cellular response).

[3] = tested on: MDA-MB-231 cells; experiment: Cell cycle analysis (PI, flow cytometry), MDA-MB-231; type: cell-based, human; conditions: MDA-MB-231, 24 h, 2600 µmol/L (IC50 value)
Method: MCF-7 and MDA-MB-231 cells were seeded in 6-well plates at a density of 2 × 10^5 cells per well and cultured for 24 h under standard conditions (with 2 mL of the medium). Next, cells were exposed to the tested compounds at concentrations corresponding to IC50. After 24 h of treatment, control and treated cells were then collected (washed with cold PBS and treated with accutase), transferred to Eppendorf tubes and centrifuged (1100 rpm, 5 min, 5 °C). The supernatant was discarded, cold PBS was added (1 mL) and the cells were centrifuged (1200 rpm, 5 min). The solution was removed, and the cells were fixed in cold 70% ethanol at 4 °C. Prior to the analysis, the cells were centrifuged (3600 rpm, 5 min) and washed twice with PBS. The solution was discarded, the pellets were suspended in 200 µL of PBS and incubated with ribonuclease at 37 °C (25 µL, final concentration in a sample was 100 µg/mL) for 30 min and stained with propidine iodide (12.5 µL, final concentration in a sample was 50 µg/mL) in darkness at room temperature for additional 20 min. The final volume of the sample was 250 µL.
DNA content and the number of cells in individual cell cycle phases was measured by flow cytometry (CytoFlex, blue laser, 480 nm, Beckman-Coulter, Indianapolis, IN, USA). Cells (20,000) were analyzed from each sample. The percentage of cells in each cell cycle phase was calculated from live cells that were expressed as 100%. The data are presented as the mean ± SD of three independent experiments. The coefficients of variation for the assay were established (CV = 0.37–11.78%, depending on the cell population).

| uptake in the presence of cimetidine, MCF-7 [1] | uptake in the presence of lopinavir, MCF-7 [1] | uptake in the presence of methenamine, MCF-7 [1] | interactions with OCT, PMAT and MATE1 transporters, MCF-7 [1] | IC50 [2] [µM] | SMILES | uptake in the presence of disopyramide, MCF-7 [1] | G0/G1 [3] [%] | G2/M [3] [%] | S [3] [%] | Sub G0/G1 [3] [%] |
| --- | --- | --- | --- | --- | --- | --- | --- | --- | --- | --- |
| did not change | increased the uptake | did not change | OCT1, PMAT | 430 ± 119 | CN(C)C(=N)N=C(N)NS(=O)(=O)c1ccccc1Br [Compound 4] | increased the uptake | – | – | – | – |
| significantly decreased | significantly higher uptake | significantly decreased | OCT1, OCT3, PMAT, MATE1 | 12.6 ± 1.2 | CN(C)C(=N)N=C(N)NS(=O)(=O)c1ccccc1Cl [Compound 1] | Lower uptake, however, not statistically significant | – | – | – | – |
| decrease in uptake | increase in its uptake | – | OCT3, PMAT | 55.1 ± 2.74 | CN(C)C(=N)N=C(N)NS(=O)(=O)c1ccccc1F [Compound 7] | – | 64.31 ± 1.13 | 12.24 ± 0.10 | 19.99 ± 0.97 | 3.41 ± 0.08 |
